Results reported in patent publication US20120115742A1, “METHODS FOR IDENTIFICATION” (Cambridge Enterprise Limited, priority 2009, published 2012).

Legend:
[1] = system: fetal rat pituicytes; test: Rat pituicyte GH suppression assay; assay type: cell-based; settings: Table 3
From the text: Two different assays for “classical” sstr2 functions were adopted: (1) cultured foetal rat pituitary cells secreted growth hormone which is inhibited by sstr2 agonists in a dose-dependent fashion and (2) selected glucose-sensitive sub-clones of the human Panc-1 cell line secrete insulin which is inhibited by sstr2 agonists in a dose-dependent fashion.
Methods: Cultures of fetal rat pituicytes were established exactly as previously described (Murray et al. (2004) J. Clin. Endocrinol. Metab. 89:3027-32) by enzymatic dispersion. After 48 hrs in low glucose DMEM plus 10% FCS, cells in 48 well plates (5×10^4 cells per well) were washed for 4 hrs in serum-free DMEM and then incubated with test agents at various concentrations for a further 24 hrs in serum-free DMEM. At the end of this period, the conditioned medium was harvested, any cell debris removed by centrifugation and assayed for […] using a commercially available ELISA (Linco; cat# EZRMGH-45K) in accordance with the manufacturer's instructions.
Results were reported as the mean SD, expressed as the fold change from cells in the presence of vehicle only.

[2] = system: rat peripheral blood leukocytes; test: Rat chemokine-induced PBMC migration assay; assay type: cell-based
Experimental: Similarly, where human Panc-2H4 cells are used to determine the effect of agents on classical sstr2 targets, the result is compared with the effect of the same agents on chemokine-induced migration of human THP-1 cells. […] For this reason, the ratio of “classical” to “BSCI” activity in Table 3 is calculated separately for rat and human.

[3] = system: Jurkat-D3B cells; test: SDF-1α induced migration of Jurkat-D3B cells expressing sstr2; assay type: cell-based, human; settings: Jurkat-D3B versus parental Jurkat
Experimental: Methods: Total mRNA was prepared from Panc-1 cells (a human pancreas cell line which is well known to express high levels of sstr2) using the RNAqueous 4PCR kit (Ambion, Cat code #1914) in accordance with the manufacturer's instructions. The mRNA was then reverse transcribed (using the RETROscript kit; Ambio) to yield a cDNA preparation. A full length cDNA of the sstr2 gene was then obtained by PCR (using a Peltier PTC-200 thermal cycler using the following cycle times and conditions: 94° C. for 2 min, followed by 30 cycles of 94° C., for 30 sec, 55° C. for 30 sec, 72° C. for 1 min and finally 72° C. for 10 min), and isolated by preparative gel electrophoresis. The sequence of the sstr2 cDNA was confirmed by sequencing. The sstr2 cDNA was treated with EcoRI and Xhol to generate sticky ends, which allowed directional cloning into the polylinker of the plasmid pcDNA3.1+ (Invitrogen) followed by ligation ([…] ligation reactions were run with 400 T4 DNA ligase (New England Biolabs) and the maximal amounts of DNA with an insert:plasmid ratio of 3:1 in ligase buffer incubated overnight at 13° C.). […]
A number of individual cell lines were obtained in this way, which expressed significant levels of sstr2 on the cell surface, detected by flow cytometry using the human-sstr2 antibody (Sigma, 50694; see Example 3 for details of the flow cytometry protocol used). […]

[4] = system: TNF-alpha; test: Sub-lethal endotoxemia model, serum TNF-alpha after LPS; assay type: in vivo, mouse; settings: dose-dependent; BN83250 s.c., valerolactam oral gavage
Experimental: We selected the sub-lethal endotoxemia model in mouse, because this has been well characterised in our laboratory (see for example Fox et al. (2002) J. Med. Chem. 45:360-70; Fox et al. (2005) J. Med. Chem. 48:867-74). The extent of systemic inflammation in response to a single intraperitoneal injection of bacterial lipopolysaccharide (LPS) can be estimated by measuring serum TNF-alpha 2 hours post challenge.
Methods: Mice (CD1 strain; adult males; 6 per group) were treated with BSCI (in an appropriate vehicle) or with vehicle alone by an appropriate route. […] Simultaneously, one set of mice at each BSCI concentration received BIM 23627 at 4 mg/animal (120 mg/kg) by sub-cutaneous injection (a treatment condition known to suppress classical sstr2-mediated signalling, such as GH release, in rats; Tulipano et al. (2002) 143:1218-24). Between 30 mins and 1 hour after dosing (a period when a maximal plasma concentration of BSCI has been achieved), the inflammatory challenge was elicited by intraperitoneal injection of 750 μg of LPS (Sigma; L4130 lot#024K4077; 900,000 EU/mg).
After a further 2 hours, the animals were sacrificed by CO2 asphyxiation, and blood was drawn by cardiac puncture. Serum was prepared by conventional methods, and the level of TNF-alpha in serum was measured using an ELISA (R&D Systems; Murine Quantikine code# MTA00) performed in accordance with the manufacturer's instructions.

[5] = system: THP-1 cells; test: MCP-1 induced THP-1 cell migration (Transwell/ChemoTx)
Experimental: Leukocyte migration was measured using the 96-well format micro Transwell® assay system from Neuroprobe (Gaithersburg, Md., USA). In principle, this assay consists of two chambers separated by a porous membrane. The chemoattractant is placed in the lower compartment and the cells are placed in the upper compartment.
First, the cell suspension to be placed in the upper compartment was prepared. The THP-1 cells were pelleted by centrifugation (770×g; 4 mins) and washed with Geys Balanced Salt Solution with 1 mg/ml BSA (GBSS+BSA). This wash was then repeated, and the cells re-pelleted before being resuspended in a small volume of GBSS+BSA for counting, for example using a standard haemocytometer.
This ensured that there were 100,000 THP-1 cells in each 25 μl of the solution to be placed in the upper chamber of the plate.
To the third pot, GBSS+BSA plus vehicle as appropriate was added so that the volumes in three pots are equal, acting as a control.
Next, the chemoattractant solution to be placed in the lower compartment was prepared. […] This solution was divided into three pots, as for the cell suspension. To one pot, the BSCI was added to the same final concentration as was added to the cell suspension, in the second pot the BSCI and the sstr2 antagonist were both added at the same concentration as previously added to the cell suspension, while to the remaining pot GBSS+BSA plus vehicle as appropriate was added so that the volumes in the three pots were equal.
Once the chemoattractant solutions for the lower wells and cell solutions for the upper chambers were prepared, the migration chamber was assembled. 29 μl of the appropriate chemoattractant solution was placed into the lower well of the chamber. Assays were performed with at least triplicate determinations of each condition. Once all the lower chambers were filled, the porous membrane was applied to the chamber in accordance with the manufacturer's instructions. Finally, 25 μl of the appropriate cell solution was applied to each upper chamber. A plastic lid was placed over the entire apparatus to prevent evaporation.
The assembled chamber was incubated at 37° C., 5% CO2, for 2 hours.
At the end of the incubation, the liquid cell suspension was gently removed from the upper chamber, 20 μl of ice-cold 20 mM EDTA in PBS was added to the upper chamber, and the apparatus was incubated at 4° C. for 15 mins. This procedure caused any cells adhering to the underside of the membrane to fall into the lower chamber.
After this incubation the filter was carefully flushed with GBSS+BSA to wash off the EDTA, and then the filter was removed.
The number of cells migrated into the lower chamber under each condition can then be determined by a number of methods, including direct counting, labelling with fluorescent or radioactive markers or through the use of a vital dye. Typically, we utilised the vital dye MTT. 3 μl of stock MTT solution were added to each well, and then the plate was incubated at 37° C. for 1-2 hours during which time dehydrogenase enzymes within the cells converted the soluble MTT to an insoluble blue formazan product that could be quantified spectrophotometrically.
In parallel, an 8-point standard curve was set up. Starting with the number of cells added to each upper chamber (100,000) and going down in 2-fold serial dilutions in GBSS+BSA, the cells were added to a plate in 25 with 3 μl of MTT stock solution added. The standard curve plate was incubated along side the migration plate. At the end of this incubation, the liquid was carefully removed from the lower chambers, taking care not to disturb the precipitated formazan product.
The MCP-1 stimulated migration was determined by subtracting the average number of cells that reached the lower compartment in wells where no MCP-1 was added from the average number of cells that reached the lower compartment where MCP-1 was present at 25 ng/ml.

## (S)-3-(2′,2′-dimethyldodecanoyl)amino-caprolactam [BN83250]
[1]; read-out: Rat pituicyte GH suppression assay ED50
  EC50: 0.32 µM
[1]; suppression compared to vehicle
  Rat pituicyte GH suppression assay Max effect: 63%
[2]; PBMC migration ED50 versus pituicyte GH ED50
  “Classical”:“BSCI” potency ratio, Rat: 0.0009
[2]; Table 3
  Rat chemokine-induced PBMC migration assay Max effect: 100%
[3]
  increase in BSCI sensitivity by ectopic expression of sstr2: more than 100 fold
[4]
  inhibition of LPS-induced systemic inflammation: dramatically inhibited
[5]; THP-1 migration ED50 versus Panc-2H4 insulin ED50
  “Classical”:“BSCI” potency ratio, Human: <0.00009
[5]; Table 3
  Human chemokine-induced THP-1 migration assay Max effect: 100%
[5]; Table 5
  Chemokine-induced THP-1 cell migration assay Max Effect: 100%
[5]; Table 5, migration ED50 versus insulin ED50
  RATIO: <0.00009
